Source: US4483868A, “Gastro-protecting activity” (Roussel Uclaf, priority 1980, dated 1984)

How the values were obtained:
[1] = tested on: ulcers in rats at the stomach level; assay: Anti-ulcer activity, Shay method (pylorus ligature in rats); assay type: in vivo; conditions: oral, about 16 hours after treatment
Description: (1) Determination of Anti-Ulcer Activity
The method used is described by SHAY et al. in Gastroenterology, 5, 43 (1945).
The Shay method consists of inducing ulcers in rats at the stomach level by ligature of the pylorus.
The animals are anesthetized with ether. A longitudinal incision is made about 1 cm below the sternum, the glandular part of the stomach and the duodenum are exposed, and a ligature is placed several mm below the pylorus. The muscular sheet is left as it is, and the skin is sutured with two clips.
As soon as possible afterwards, the animals receive the dispersive or the substance to be studied via the mouth in a volume of 0.5 ml/100 g and are kept without food or drink until sacrificed by carotid bleeding, which takes place about 16 hours after the treatment.
Before removing the stomach, a ligature is placed above the cardia.
The gastric liquid is collected in order to measure the pH.
The stomach is then opened along the major curvature, rinsed with physiological serum, and spread out on millimeter paper to be examined under a binocular magnifier.
The severity of the lesions is evaluated macroscopically and graded from 0 to 4 for each stomach.
The mean intensity of ulcerations is determined for each group of rats, and the protection is calculated by taking the ratio of the mean index of the treated group to the mean index of the control group.
The value of the gastric pH for the treated and control animals are likewise determined.

[2] = Determination of acute toxicity (LD50, oral, mice); conditions: mouse, in vivo, oral administration
Protocol: (2) Determination of Acute Toxicity
The lethal dose, LD50, of the compounds of Examples 1-8 was evaluated in mice after oral administration.

[3] = Rattus norvegicus, 0.8 mg/kg, read-out: Ulcerations % of protection with respect to controls
[4] = Rattus norvegicus, 4 mg/kg, read-out: Ulcerations % of protection with respect to controls
[5] = Rattus norvegicus, 20 mg/kg, read-out: Ulcerations % of protection with respect to controls
[6] = Rattus norvegicus, 0.4 mg/kg, read-out: Ulcerations % of protection with respect to controls
[7] = Rattus norvegicus, 2 mg/kg, read-out: Ulcerations % of protection with respect to controls
[8] = Rattus norvegicus, 10 mg/kg, read-out: Ulcerations % of protection with respect to controls
[9] = Rattus norvegicus, 50 mg/kg, read-out: Ulcerations % of protection with respect to controls

Compound | inhibition in vivo at 4 mg/kg [1, 4] | inhibition in vivo at 20 mg/kg [1, 5] | pH of gastric liquid, treated animals ([1]; 4 mg/kg) | pH of gastric liquid, treated animals ([1]; 20 mg/kg) | LD50 [2] | inhibition in vivo at 2 mg/kg [1, 7] | inhibition in vivo at 10 mg/kg [1, 8] | pH of gastric liquid, treated animals ([1]; 2 mg/kg) | pH of gastric liquid, treated animals ([1]; 10 mg/kg) | other results
COc1ccc(C(=O)/C=C/C(=O)O)cc1OC [Example 1, (E) 4-(3,4-dimethoxyphenyl)-4-oxo-2-butenoic acid] | 83% | 100% | 2.6 | 4.3 | ~500 mg/kg |  |  |  |  | inhibition in vivo at 0.8 mg/kg [1, 3]: 0%; pH of gastric liquid, treated animals ([1]; 0.8 mg/kg): 2.9
O=C(O)/C=C/C(=O)c1ccc(Cl)cc1 [Example 2, (E) 4-(4-chlorophenyl)-4-oxo-2-butenoic acid] |  |  |  |  | ~200 mg/kg |  |  |  |  | inhibition in vivo at 1 mg/kg ([1]; Rattus norvegicus, 1 mg/kg, read-out: Ulcerations % of protection with respect to controls): 0%; inhibition in vivo at 5 mg/kg ([1]; Rattus norvegicus, 5 mg/kg, read-out: Ulcerations % of protection with respect to controls): 57%; inhibition in vivo at 25 mg/kg ([1]; Rattus norvegicus, 25 mg/kg, read-out: Ulcerations % of protection with respect to controls): 100%; pH of gastric liquid, treated animals ([1]; 1 mg/kg): 3.0; pH of gastric liquid, treated animals ([1]; 5 mg/kg): 3.0; pH of gastric liquid, treated animals ([1]; 25 mg/kg): 5.6
O=C(O)/C=C/C(=O)c1ccc(F)cc1 [Example 3, (E) 4-(4-fluorophenyl)-4-oxo-2-butenoic acid] |  |  |  |  | ~300 mg/kg | 43% | 100% | 2.8 | 4.0 | inhibition in vivo at 0.4 mg/kg [1, 6]: 20%; pH of gastric liquid, treated animals ([1]; 0.4 mg/kg): 3.1
O=C(O)/C=C/C(=O)c1ccc(Cl)c(Cl)c1 [Example 4, (E) 4-(3,4-dichlorophenyl)-4-oxo-2-butenoic acid] | 14% | 71% | 3.1 | 4.1 | ~500 mg/kg |  |  |  |  | 
O=C(O)/C=C/C(=O)c1ccccc1[N+](=O)[O-] [Example 5, (E) 4-(2-nitrophenyl)-4-oxo-2-butenoic acid] | 19% | 100% | 3.3 | 4.3 | ~500 mg/kg |  |  |  |  | 
O=C(O)/C=C/C(=O)c1ccc(C(F)(F)F)cc1 [Example 6, (E) 4-(4-trifluoromethylphenyl)-4-oxo-2-butenoic acid] | 55% | 67% | 2.3 | 2.8 | ~600 mg/kg |  |  |  |  | inhibition in vivo at 0.8 mg/kg [1, 3]: 20%; inhibition in vivo at 100 mg/kg ([1]; Rattus norvegicus, 100 mg/kg, read-out: Ulcerations % of protection with respect to controls): 98%; pH of gastric liquid, treated animals ([1]; 0.8 mg/kg): 1.4; pH of gastric liquid, treated animals ([1]; 100 mg/kg): 6.3
COc1ccc(OC)c(C(=O)/C=C/C(=O)O)c1 [Example 7, (E) 4-(2,5-dimethoxyphenyl)-4oxo-2-butenoic acid] |  |  |  |  | ~300 mg/kg | 93% | 88% | 2.8 | 3.0 | inhibition in vivo at 0.4 mg/kg [1, 6]: 0%; inhibition in vivo at 50 mg/kg [1, 9]: 100%; pH of gastric liquid, treated animals ([1]; 0.4 mg/kg): 3.0; pH of gastric liquid, treated animals ([1]; 50 mg/kg): 4.2
O=C(O)/C=C/C(=O)c1ccc2c(c1)OCO2 [Example 8, (E) 4-(3,4-methylenedioxyphenyl)-4-oxo-2-butenoic acid] |  |  |  |  | ~400 mg/kg | 33% | 60% | 3.2 | 3.3 | inhibition in vivo at 50 mg/kg [1, 9]: 100%; pH of gastric liquid, treated animals ([1]; 50 mg/kg): 5.4
